Experimental data from patent US20220331500A1, “DIALYZER” (SCHOOL JURIDICAL PERSON THE KITASATO INSTITUTE, priority 2019, published 2022).
Like-named read-outs stand apart in the source and are kept apart here.

What was measured:
[1] = NO donor, NO release; cited from earlier work
Sprague Dawley rats [2] = test system: Sprague Dawley rats
Experimental: Blood dialysis of rats was performed by changing the amount of nitrite to be supplied to the dialysate, and the optimal concentration of nitrite was examined.
(§1) Male Sprague Dawley rats (body weight: 300 g to 400 g) that were 8 to 12 weeks old were used. The rats were inhaled and anesthetized using isoflurane 1.5% to 3.0% as an anesthetic. Blood was removed from the carotid artery, and blood was returned into the tail vein. The blood flow rate was 0.5 mL/min to 1.0 mL/min, the dialysate flow rate was 3 mL/min, and the blood dialysis was performed for 4 hours by a parallel flow operation. Heparin was administered at 0.7 units/g at the start of dialysis.
As the dialysis unit (dialyzer), a small rat dialyzer having a cellulose triacetate membrane, 140 hollow fibers, an effective length of 146 mm, and a membrane area of 0.014 m^2 were used.
(§2) Dialysates in which the sodium nitrite concentration was adjusted to be 40 μM, 80 μM, and 120 μM were used. As a control group, a dialysate containing no sodium nitrite was used.
(§3) During the experiment, arterial pressure, dialyzer inlet pressure, and venous pressure were measured at intervals of 15 minutes. Additionally, methemoglobin (Met-Hb) was measured at the start of the experiment and then at intervals of 60 minutes. Additionally, after the circulation was ended, the dialyzer was washed, and the amount of residual blood hemoglobin (Hb) amount and the activity value of residual blood lactate dehydrogenase (LDH) were measured.
The experiment was performed with a circulation time of 4 hours. When the dialyzer inlet pressure or venous pressure exceeded 250 mmHg, the circulation was ended.

Sprague Dawley rats [3] = test system: Sprague Dawley rats; remark: listed apart in the source
Experimental: as §1, §2, §3
After the end of 4 hours of circulation, the dialyzer was washed with 10 mL of Lactec Injection and then a 0.5% Triton (Registered trademark) solution was circulated for 2 hours. After that, an LDH activity value in a washing solution was measured using a commercially available kit (“Cytotoxicity Measurement KitPLUS (LDH)” made by Roche Diagnostics K.K.) and used as the residual blood LDH activity value.

Sprague Dawley rats [4] = details: all groups (40, 80, 120 μM sodium nitrite)
Experimental: as §1, §2, §3

Sprague Dawley rats [5] = assay: Rat blood dialysis with NO gas supplied to the dialysate: 4-hour circulation achievement rate; assay type: in vivo; details: for 4-hour circulation achievement rate: rat blood dialysis
Experimental: An extracorporeal perfusion type polymethylpentene membrane oxygenator was used for gas exchange.
(§4) NO gas of which the concentration was adjusted to 200 ppm, 400 ppm, and 800 ppm was added to the dialysate via a gas exchanger. As a control group, nitrogen gas (N2) was added to the dialysate instead of NO gas.
(§5) FIG. 3 is a schematic diagram showing the structure of a circulation circuit in which the dialyzer is connected to a rat. […] In a case where it was possible to perform the 4-hours circulation, the residual blood in the dialyzer was evaluated.
During the experiment, there was a case where the dialyzer inlet pressure or venous pressure increased, the blood coagulation in the dialyzer or the blood coagulation in the circuit were determined, and the circulation was stopped halfway. Thus, in all groups, the number of 4-hour circulation achievements with respect to the total number of experiments was calculated as the 4-hour circulation achievement rate.
FIG. 4 is a graph showing the 4-hour circulation achievement rate. In FIG. 4, “Control” indicates the results of the control group, and “200 ppm”, “400 ppm”, and “800 ppm” indicate the results of a group in which NO gas of each concentration was supplied to the dialysate.

Sprague Dawley rats [6] = assay: Measurement of NO concentration in blood and dialysate during rat blood dialysis (OxiSelect Nitrite/Nitrate kit); assay type: in vivo; details: 800 ppm NO gas; blood (out) venous side vs blood (in) arterial side of dialysis unit; 1 hour
Experimental: as §4
For a group in which 800 ppm of NO gas was supplied to the dialysate, the dialysate was supplied to the blood (in) on an arterial side of the dialysis unit, the blood (out) on a venous side of the dialysis unit, the dialysate (in) in the dialysate supply channel for supplying the dialysate to the dialysis unit, and the dialysate (out) in the dialysate discharge channel for discharging the dialysate from the dialysis unit were collected 1 hour after the start of circulation, and the NO concentration was measured using a commercially available kit (“OxiSelect In Vitro Nitric Oxide (Nitrite/Nitrate) Assay Kit (Colorimetric)” made by Cell Biolabs, Inc.). The NO concentration was measured as the sum of the concentrations of NO2^− and NO3^− after the NO was completely hydrolyzed. For this reason, hereinafter, there is a case where the total concentration of […] is referred to as the NO concentration.

Sprague Dawley rats [7] = assay: Residual blood LDH activity value and residual blood Hb in the dialyzer after 4 hours of circulation (NO gas); assay type: in vivo, rat; details: for amount of residual blood Hb: compared to control group
Experimental: as §4, §5
In FIG. 6, “Control” indicates the results of the control group, and “200 ppm”, “400 ppm”, and “800 ppm” indicate the results of a group in which NO gas of each concentration was supplied to the dialysate.

Sprague Dawley rats [8] = assay: Methemoglobin (Met-Hb) during rat blood dialysis with NO gas; assay type: in vivo
Experimental: as §4

[9] = 80 μM sodium nitrite in dialysate, compared to control group
[10] = 120 μM sodium nitrite in dialysate, compared to control group
[11] = extrapolated from the 200-800 ppm results

CC(C)N(CCCN)/[N+]([O-])=N/O [NOC5]
Half-life [1]: 25 min

CNCCCN(C)/[N+]([O-])=N/O [NOC7]
Half-life [1]: 5 min

CCNCCN(CC)[N+]([O-])=NO [NOC12]
Half-life [1]: 100 min

NCCN(CCN)/[N+]([O-])=N/O [NOC18]
Half-life [1]: 1260 min

COCC(/C(C)=C/C(=N/O)C(N)=O)[N+](=O)[O-] (stereo not drawn) [NOR1]
Half-life [1]: 1.8 min

CC/C(=C\C(CNC(=O)c1cccnc1)=N\O)C(C)[N+](=O)[O-] (stereo not drawn) [NOR4]
Half-life [1]: 60 min

O=NO [sodium nitrite]
blood pressure (arterial pressure) during circulation (Sprague Dawley rats [2]; 40 μM sodium nitrite in dialysate): stable for 4 hours
blood pressure (arterial pressure) during circulation (Sprague Dawley rats [2]; 80 μM sodium nitrite in dialysate): stable for 4 hours
blood pressure (arterial pressure) during circulation (Sprague Dawley rats [2]; 120 μM sodium nitrite in dialysate, vs control group): significantly lower
blood pressure (arterial pressure) during circulation (Sprague Dawley rats [2]; 120 μM sodium nitrite in dialysate, vs control group, listed as nitrite ions): slight decrease
4 hours circulation (Sprague Dawley rats [2]; sodium nitrite groups (40, 80, 120 μM) and control): circulate stably for 4 hours
residual blood LDH activity value (Sprague Dawley rats [3]; 40 μM sodium nitrite in dialysate, compared to control group): significantly lower
residual blood LDH activity value (Sprague Dawley rats [3]; 80 μM and 120 μM as compared to 40 μM): lower value
amount of residual blood Hb (Sprague Dawley rats [3]; [9]): significantly lower
residual blood LDH activity value (Sprague Dawley rats [3]; [9]): significantly lower
amount of residual blood Hb (Sprague Dawley rats [3]; [10]): significantly lower
residual blood LDH activity value (Sprague Dawley rats [3]; [10]): significantly lower
Met-Hb concentration (Sprague Dawley rats [4]): ≤ 2%

nitric oxide [NO gas]
NO concentration at which the 4-hour circulation achievement rate was 100% (Sprague Dawley rats [5]; [11]): 5.4 µM
4-hour circulation achievement rate (Sprague Dawley rats [5]; 800 ppm compared with 200 ppm and 400 ppm): higher
4-hour circulation achievement rate (Sprague Dawley rats [5]; as the concentration of NO gas supplied to the dialysate was higher (200, 400, 800 ppm)): increased
amount of increase in NO concentration in blood (Sprague Dawley rats [6]): about 3 μM
amount of residual blood Hb (Sprague Dawley rats [7]; 200 ppm NO gas supplied to the dialysate): significantly lower
residual blood LDH activity value (Sprague Dawley rats [7]; 200 ppm NO gas supplied to the dialysate, compared to control group (N2), after 4 hours): significantly lower
amount of residual blood Hb (Sprague Dawley rats [7]; 400 ppm NO gas supplied to the dialysate): significantly lower
residual blood LDH activity value (Sprague Dawley rats [7]; 400 ppm NO gas supplied to the dialysate, compared to control group (N2), after 4 hours): significantly lower
amount of residual blood Hb (Sprague Dawley rats [7]; 800 ppm NO gas supplied to the dialysate): significantly lower
residual blood LDH activity value (Sprague Dawley rats [7]; 800 ppm NO gas supplied to the dialysate, compared to control group (N2), after 4 hours): significantly lower
residual blood LDH activity value (Sprague Dawley rats [7]; as the NO concentration was higher (200 to 800 ppm)): lower value
NO concentration at which the residual blood LDH activity value was 0 U/L (Sprague Dawley rats [7]; [11]): 6 µM
Met-Hb (Sprague Dawley rats [8]; 800 ppm NO gas): ≤ 10%
adverse event (Sprague Dawley rats [8]; NO gas of 200 ppm to 800 ppm supplied to the dialysate): no adverse event occurred
Met-Hb (Sprague Dawley rats [8]; all NO-added groups (200 ppm to 800 ppm)): less than 10%
